Values quoted from earlier work as cited in US20100297262A1, “[…] ACTIVE COMPOSITIONS COMPRISING OXIDATIVE STRESS MODULATORS (OSM), NEW CHEMICAL […], COMPOSITIONS AND USES” (COLBY PHARMACEUTICAL COMPANY, priority 2009, published 2010).

Columns and labels:
[1] = tested on: Isolated liver mitochondria; settings: Treatment: Ferrous iron/ascorbate; cited from earlier work
[2] = tested on: Isolated kidney mitochondria; settings: Treatment: Superoxide; cited from earlier work
Jurkat cells = settings: Treatment: H2O2; cited from earlier work
[3] = tested on: Bovine aortic endothelial cells; settings: Treatment: H2O2 or hydroperoxyoctadecadienoic acid; cited from earlier work
[4] = tested on: Friedreich's ataxia patient primary skin fibroblasts; settings: Treatment: Glutathione depletion; cited from earlier work
COS-7 cells = settings: Treatment: H2O2; cited from earlier work
[5] = tested on: Rat primary cerebellar granule cells; settings: Treatment: Ethanol; cited from earlier work
[6] = tested on: Human colon cancer cell lines (HCT116 and RKO); settings: Treatment: 5-Fluorouracil; cited from earlier work

In the case of Cc1c(C)c2c(c(C)c1O)CCC(C)(CC[P+](c1ccccc1)(c1ccccc1)c1ccccc1)O2 (centres unmarked) [MitoVE-C2], the “Outcome: lipid peroxidation, protein carbonyl formation and loss of membrane potential” value [1] is given as “Decreases lipid peroxidation,”, the “Outcome: activation of uncoupling proteins” value [2] is given as “Blocks activation of” and the “Outcome: apoptosis” value (Jurkat cells) is given as “Decreases apoptosis”. For the same molecule, the “Outcome: transferrin receptor expression and iron uptake” value [3] was “fluorescence. Decreases”, the “Outcome: cell death” value [4] was “Decreases cell death” and the “Outcome: growth factor receptor and kinase phosphorylation” value (COS-7 cells) was “Decreases growth factor”. For the same molecule, the “Outcome: dichlorofluorescein fluorescence and cell death” value [5] was “Decreases” and the “Outcome: apoptosis from 5-FU chemotherapy” value [6] was “Decreases apoptosis from 5-”.
